In patent US5610185A, “Method for the treatment of hyperproliferative epithelial skin diseases by topical application of hydroxylated aromatic protein cross-linking compounds” (The United States of America as represented by the …, priority 1995, dated 1997):
“Also recorded” adds a separate entry of the source.

Key:
Type in all cases: cell-based
[1] = test system: HPV 18 infected human keratinocytes; experiment: Cornified envelope (cross-linked protein) assay, HPV 18 infected keratinocytes; details: 48 h, 0.1-1 mM
Description: FIG. 1. MC Increases Cross-linked Protein in Epidermal Cell Lines. Black squares represent HPV 18 human epithelial keratinocytes; black circles represent SV 40 infected human keratinocytes; black triangles represent (SQCC-Y1) cells; white triangles represent (SP-1) benign tumor mouse keratinocytes; white squares represent (308 cells) benign mouse keratinocytes; and white circles represent (I-7) cells mouse squamous cell carcinoma.
Primary mouse keratinocytes were isolated from BALB/c newborn mouse skin. Primary keratinocytes, the benign neoplastic keratinocyte cell lines 308 and SP-1 (Strickland et al, Cancer Res., 48, 165-169, 1988) and the mouse squamous cell carcinoma line 1-7 (Greenhalgh et al., Proc. Natl. Acad. Sci., 87, 643-647, 1990) were grown in Eagle's minimal essential medium with 8% fetal calf serum (FCS) (chelexed) and penicillin 20 iu/ml, streptomycin 20 ug/ml (P/S). Unless otherwise indicated, the Ca^2+ concentration in medium was adjusted to 0.05 mM (Hennings et al., Cells, 19, 245-254, 1980). […]
Cells were incubated with MC for 48 hours, then cross-linked protein was isolated and measured as described in Example 1.
The assay measures insoluble cross-linked protein envelopes as described (Hough-Monroe et al. Analytical biochem., 199, 25-28, 1991), with modifications as follows. […] Absorbance of eluate was measured on a Titertek plate reader at 600 nm.

[2] = test system: primary mouse keratinocytes; experiment: Cornified envelope (cross-linked protein) assay, primary mouse keratinocytes
Procedure: FIGS. 3A and 3B. A: Time course for cornification of primary mouse keratinocytes in response to MC. Boxes represent […] Ca^2+, triangles represent 100 μM MC, 1.4 mM Ca^2+, and solid circles represent 1 mM MC, 1.4 mM Ca^2+. […] Cells were incubated in medium with 1.4 mM Ca^2+ and MC for 4 hours, then were incubated with MTT (0.5 mg/ml in medium) for a further 4 hours before determination of formazan production.
Primary mouse keratinocytes were isolated from BALB/c newborn mouse skin. Primary keratinocytes, the benign neoplastic keratinocyte cell lines 308 and SP-1 (Strickland et al, Cancer Res., 48, 165-169, 1988) and the mouse squamous cell carcinoma line 1-7 (Greenhalgh et al., Proc. Natl. Acad. Sci., 87, 643-647, 1990) were grown in Eagle's minimal essential medium with 8% fetal calf serum (FCS) (chelexed) and penicillin 20 iu/ml, streptomycin 20 ug/ml (P/S). Unless otherwise indicated, the Ca^2+ concentration in medium was adjusted to 0.05 mM (Hennings et al., Cells, 19, 245-254, 1980). A431 human epidermoid carcinoma cells were obtained from ATCC, Rockville, Md., and were routinely passaged in DMEM with 10% FCS, P/S, glutamine (2 mM) and pyruvate (1 mM). SQCC-Y1 human squamous carcinoma cells and non-tumorigenic HPV 18 and SV 40 infected human keratinocytes were kindly donated by Dr. James Rheinwald of Harvard University, Boston, Mass. and Dr. Richard Schlegel of Georgetown University, Washington D.C. respectively. Human cells were cultured in DMEM/Ham's F12 1:1, 10% FCS, P/S and epidermal growth factor 10 ng/ml.
Primary mouse keratinocytes were incubated with MC for 0, 0.5, 1, 4 and 48 hours and were processed as follows.
The assay measures insoluble cross-linked protein envelopes as described (Hough-Monroe et al. Analytical biochem., 199, 25-28, 1991), with modifications as follows. Cornified envelopes were prepared by scraping monolayers into 2% sodium dodecylsulphate (SDS), 20 mM dithiothreitol (DTT) in phosphate buffered saline (PBS). Unattached cells were pelleted from medium and were resuspended in SDS/DTT and pooled with attached cells. Samples were boiled for 10 mins. Cornified envelope samples were examined under the microscope using phase contrast optics or were applied to an RC60 membrane (Schleicher and Schuell, Keene, N.H.) on a 96-well dot-blot apparatus attached to a vacuum. Samples were washed three times with SDS/DTT and the resultant protein spots on RC60 membrane were fixed and stained as described. Sports were excised and eluted with 1% NH3 OH concentrated solution, 66% methanol (200 ul) overnight. Absorbance of eluate was measured on a Titertek plate reader at 600 nm.
Cells were seeded at low density and were treated with MC for 3 days. Cells were then counted and increase in cell number was compared to untreated controls, or cells were processed for cross-linked protein.
Inhibitors were added 30 mins before MC or stsp (FIG. 6). Cross-linked protein was measured by the cornified envelope assay, described in Example 2.

[3] = test system: primary mouse keratinocytes; experiment: Growth inhibition (cell count), primary mouse keratinocytes; details: Keratinocyte, 72 h, 25 μM MC, 3 days, read-out: cells that continued to grow
Procedure: FIG. 4. Cross-linked Protein Production vs Growth Inhibition in Mouse Primary Keratinocytes. Cell growth is represented by black squares and cross-linked protein production by white squares. Results are ±SD (n=3) of one experiment, representative of three.
Cells were seeded at low density and were treated with MC for 3 days. Cells were then counted and increase in cell number was compared to untreated controls, or cells were processed for cross-linked protein. (FIG. 4) Protein cross-linking was rapid, commencing within 4 hours at 1 mM in mouse primary keratinocytes, (FIG. 3A) and was accompanied by cell death, as measured by the MTT assay (FIG. 3B).

## COC(=O)C=Cc1cc(O)ccc1O [MC, methyl 2,5-dihydroxycinnamate]
[1]
  cross-linked protein (envelope production): induced crosslinked envelope production; also recorded: increased cross-linked protein in a dose-dependent manner
[2]; 100 μM, 48 hours
  cornification after 48 hours: effective
[2]; 1 mM, 48 hours
  cornification after 48 hours: effective
[2]; 1 mM, primary mouse keratinocytes
  time within which cornification / cross-linking occurs or commences: ≤ 4 h
[2]; 4° C. and 37° C., 48 hours
  cross-linked protein at 4° C. and 37° C.: took place at 4 °C and 37 °C; also recorded: Induces Cross-linked protein; also recorded: able to induce cross-linked protein effectively at 4° or 37 °C
[2]; Keratinocyte, 72 h, primary mouse keratinocytes, 3 days, read-out: concentration required to produce protein cross-linking
  minimal effective concentration: > 50 µM
[2]; LTB 2 and HPB 2 at 100 μM, MC 75 or 1000 μM or staurosporine 10 nM, 48 hours
  effect of transglutaminase inhibitors on cross-linking activity: not affected by transglutaminase inhibitors; also recorded: not inhibited by transglutaminase (TGase) inhibitors; also recorded: do not Prevent Protein Cross-linking
[2]; primary mouse keratinocytes, 48 h, 0.1-1 mM
  cross-linked protein (envelope production): induced crosslinked envelope production; also recorded: increased cross-linked protein in a dose-dependent manner
[3]
  activity at 25 µM: 20%
